Laboratory results as given in PubChem BioAssay (NCI).
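Following 48 hours of exposure in 96-well plates, responses at five concentrations were used to interpolate endpoints linearly. The concentration for full growth arrest is given as TGI.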

How the values were obtained:
Test in all cases: NCI anticancer screen, dose series, 48 h
[1] = system: RXF 393 renal
[2] = system: A498 renal
[3] = system: OVCAR-5 ovarian
[4] = system: MDA-N
[5] = system: NCI-H522 lung
[6] = system: MDA-MB-435
[7] = system: BT-549 breast
[8] = system: UO-31 renal
[9] = system: MALME-3M melanoma
[10] = system: A549 NSCLC
[11] = system: HCT-15 colon
[12] = system: COLO 205 colon
[13] = system: U251 CNS
[14] = system: 786-0 renal
[15] = system: HOP-92 NSCLC
[16] = system: NCI-H23 lung
[17] = system: CCRF-CEM leukemia
[18] = system: SF-268 CNS
[19] = system: OVCAR-8 ovarian
[20] = system: SR leukemia
[21] = system: SK-MEL-28 melanoma
[22] = system: NCI-H460 lung
[23] = system: IGROV1 ovarian
[24] = system: OVCAR-4 ovarian
[25] = system: SK-OV-3 ovarian
[26] = system: HCC-2998 colon
[27] = system: HOP-62 NSCLC
[28] = system: KM12 colon
[29] = system: MOLT-4 leukemia
[30] = system: SF-539 CNS
[31] = system: HT29 colon
[32] = system: HL-60(TB) leukemia
[33] = system: UACC-62 melanoma
[34] = system: M14 melanoma
[35] = system: SK-MEL-5 melanoma
[36] = system: HS 578T breast
[37] = system: K-562 leukemia
[38] = system: DU-145 prostate
[39] = system: SK-MEL-2 melanoma
[40] = system: MCF7 breast
[41] = system: MDA-MB-231 breast
[42] = system: SN12C renal
[43] = system: ACHN renal
[44] = system: NCI/ADR-RES ovarian
[45] = system: RPMI-8226 leukemia
[46] = system: SW-620 colon
[47] = system: HCT-116 colon
[48] = system: CAKI-1 renal
[49] = system: UACC-257 melanoma
[50] = system: LOX IMVI melanoma
[51] = system: TK-10 renal
[52] = system: SF-295 CNS
[53] = system: SNB-19 CNS
[54] = system: SNB-75 CNS
[55] = system: PC-3 prostate
[56] = system: OVCAR-3 ovarian
[57] = system: T-47D breast
[58] = system: EKVX NSCLC
[59] = system: NCI-H226 lung

CCOC(=O)CCC(NC(=O)OCc1ccccc1)C(=O)NNC(=O)OC(C)(C)C (stereo not given)
TGI [1]: > 100 µM
TGI [2]: > 100 µM
TGI [3]: > 100 µM
TGI [4]: > 100 µM
TGI [5]: > 100 µM
TGI [6]: > 100 µM
TGI [7]: > 100 µM
TGI [8]: > 100 µM
TGI [9]: > 100 µM
TGI [10]: > 100 µM
TGI [11]: > 100 µM
TGI [12]: > 100 µM
TGI [13]: > 100 µM
TGI [14]: > 100 µM
TGI [15]: > 100 µM
TGI [16]: > 100 µM
TGI [17]: > 100 µM
TGI [18]: > 100 µM
TGI [19]: > 100 µM
TGI [20]: > 100 µM
TGI [21]: > 100 µM
TGI [22]: > 100 µM
TGI [23]: > 100 µM
TGI [24]: > 100 µM
TGI [25]: > 100 µM
TGI [26]: > 100 µM
TGI [27]: > 100 µM
TGI [28]: > 100 µM
TGI [29]: > 100 µM
TGI [30]: > 100 µM
TGI [31]: > 100 µM
TGI [32]: > 100 µM
TGI [33]: > 100 µM
TGI [34]: > 100 µM
TGI [35]: > 100 µM
TGI [36]: > 100 µM
TGI [37]: > 100 µM
TGI [38]: > 100 µM
TGI [39]: > 100 µM
TGI [40]: > 100 µM
TGI [41]: > 100 µM
TGI [42]: > 100 µM
TGI [43]: > 100 µM
TGI [44]: > 100 µM
TGI [45]: > 100 µM
TGI [46]: > 100 µM
TGI [47]: > 100 µM
TGI [48]: > 100 µM
TGI [49]: > 100 µM
TGI [50]: > 100 µM
TGI [51]: > 100 µM
TGI [52]: > 100 µM
TGI [53]: > 100 µM
TGI [54]: > 100 µM
TGI [55]: > 100 µM
TGI [56]: > 100 µM
TGI [57]: > 100 µM
TGI [58]: > 100 µM

CC1(CC(=O)O)OC2CCCCCC2O1 (stereo not given) (tested in a mixture with another compound)
TGI [1]: > 100 µM
TGI [2]: > 100 µM
TGI [3]: > 100 µM
TGI [4]: > 100 µM
TGI [5]: > 100 µM
TGI [6]: > 100 µM
TGI [7]: > 100 µM
TGI [8]: > 100 µM
TGI [9]: > 100 µM
TGI [10]: > 100 µM
TGI [11]: > 100 µM
TGI [12]: > 100 µM
TGI [13]: > 100 µM
TGI [14]: > 100 µM
TGI [15]: > 100 µM
TGI [16]: > 100 µM
TGI [17]: 84.5 µM
TGI [18]: > 100 µM
TGI [19]: > 100 µM
TGI [20]: > 100 µM
TGI [21]: > 100 µM
TGI [22]: > 100 µM
TGI [23]: > 100 µM
TGI [24]: > 100 µM
TGI [25]: > 100 µM
TGI [27]: > 100 µM
TGI [28]: > 100 µM
TGI [29]: > 100 µM
TGI [30]: > 100 µM
TGI [31]: > 100 µM
TGI [32]: > 100 µM
TGI [33]: > 100 µM
TGI [34]: > 100 µM
TGI [35]: > 100 µM
TGI [36]: > 100 µM
TGI [37]: > 100 µM
TGI [38]: > 100 µM
TGI [39]: > 100 µM
TGI [40]: > 100 µM
TGI [41]: > 100 µM
TGI [42]: > 100 µM
TGI [43]: > 100 µM
TGI [44]: > 100 µM
TGI [45]: > 100 µM
TGI [46]: > 100 µM
TGI [47]: > 100 µM
TGI [48]: > 100 µM
TGI [49]: > 100 µM
TGI [50]: > 100 µM
TGI [51]: > 100 µM
TGI [52]: > 100 µM
TGI [53]: > 100 µM
TGI [54]: > 100 µM
TGI [55]: > 100 µM
TGI [59]: > 100 µM
TGI [56]: > 100 µM
TGI [57]: > 100 µM
TGI [58]: > 100 µM

COc1ccc(CNc2nc(NCc3ccc(OC)cc3)nc(NC3CCCCC3)n2)cc1
TGI [2]: > 100 µM
TGI [3]: > 100 µM
TGI [4]: > 100 µM
TGI [5]: 3.39 µM
TGI [6]: 1.94 µM
TGI [7]: 37.9 µM
TGI [8]: 96.6 µM
TGI [9]: 1.61 µM
TGI [10]: 5.31 µM
TGI [11]: 9.52 µM
TGI [12]: 5.35 µM
TGI [13]: > 100 µM
TGI [14]: > 100 µM
TGI [15]: > 100 µM
TGI [18]: 6.5 µM
TGI [19]: 7.17 µM
TGI [20]: > 100 µM
TGI [21]: > 100 µM
TGI [22]: 7.78 µM
TGI [23]: 6.22 µM
TGI [24]: > 100 µM
TGI [25]: > 100 µM
TGI [26]: 3.74 µM
TGI [27]: > 100 µM
TGI [28]: 5.47 µM
TGI [29]: > 100 µM
TGI [30]: > 100 µM
TGI [31]: > 100 µM
TGI [32]: > 100 µM
TGI [33]: 9.41 µM
TGI [35]: > 100 µM
TGI [36]: 4.85 µM
TGI [37]: > 100 µM
TGI [38]: 6.88 µM
TGI [39]: 7.86 µM
TGI [40]: 0.533 µM
TGI [41]: 7.73 µM
TGI [42]: > 100 µM
TGI [43]: > 100 µM
TGI [44]: 5.36 µM
TGI [45]: > 100 µM
TGI [46]: > 100 µM
TGI [47]: 11.7 µM
TGI [48]: 4.86 µM
TGI [49]: > 100 µM
TGI [50]: 20.2 µM
TGI [51]: 4.11 µM
TGI [52]: 4.14 µM
TGI [53]: 5.96 µM
TGI [55]: > 100 µM
TGI [59]: 5.71 µM
TGI [56]: 6.24 µM
TGI [57]: > 100 µM
TGI [58]: 8.5 µM

CC(CS(=O)(=O)Cc1ccccc1)C(N)=O (stereo not given)
TGI [2]: > 100 µM
TGI [3]: > 100 µM
TGI [4]: > 100 µM
TGI [5]: > 100 µM
TGI [6]: > 100 µM
TGI [7]: > 100 µM
TGI [8]: > 100 µM
TGI [9]: > 100 µM
TGI [10]: > 100 µM
TGI [11]: > 100 µM
TGI [12]: > 100 µM
TGI [13]: > 100 µM
TGI [14]: > 100 µM
TGI [15]: > 100 µM
TGI [16]: > 100 µM
TGI [18]: > 100 µM
TGI [19]: > 100 µM
TGI [20]: > 100 µM
TGI [21]: > 100 µM
TGI [22]: > 100 µM
TGI [23]: > 100 µM
TGI [24]: > 100 µM
TGI [25]: > 100 µM
TGI [27]: > 100 µM
TGI [28]: > 100 µM
TGI [29]: > 100 µM
TGI [30]: > 100 µM
TGI [31]: > 100 µM
TGI [32]: > 100 µM
TGI [33]: > 100 µM
TGI [34]: > 100 µM
TGI [35]: > 100 µM
TGI [36]: > 100 µM
TGI [37]: > 100 µM
TGI [38]: > 100 µM
TGI [39]: > 100 µM
TGI [40]: > 100 µM
TGI [41]: > 100 µM
TGI [42]: > 100 µM
TGI [43]: > 100 µM
TGI [44]: > 100 µM
TGI [45]: > 100 µM
TGI [46]: > 100 µM
TGI [47]: > 100 µM
TGI [48]: > 100 µM
TGI [49]: > 100 µM
TGI [50]: > 100 µM
TGI [51]: > 100 µM
TGI [52]: > 100 µM
TGI [53]: > 100 µM
TGI [55]: > 100 µM
TGI [59]: > 100 µM
TGI [56]: > 100 µM
TGI [57]: > 100 µM
TGI [58]: > 100 µM
